pIC50: −log10 of the molar value. A value given as a limit tells only on which side of the number the result lay.

One data set relates to NOMO-1. Kind of data set: Antiproliferative activity against human NOMO-1 cells harboring MLL-AF9 assessed as inhibition of cell growth incubated for […] by CellTiter-Aqueous One assay. To be noted: NOMO-1, 4 h. It counts as functional, cell-based.
Another data set has as its system K562. Kind of data set: cells. To be noted: Homo sapiens, K562, 4 h.
Data set [1] deals with Prostaglandin G/H synthase 2 (Homo sapiens, UniProt P35354). Kind of data set: Inhibition of human COX-2 by FLINT assay.
The target in data set [2] is 3',5'-cyclic-AMP phosphodiesterase 4B (Homo sapiens, UniProt Q07343). Description: Inhibition of human PDE4B by luminescence assay.
The target of data set [3] is 5-hydroxytryptamine receptor 1B (Homo sapiens, UniProt P28222). Description: Inhibition of human 5-HT1B in presence of GTPgS.
For data set [4], the target named is 5-hydroxytryptamine receptor 2A (Homo sapiens, UniProt P28223). Description: Inhibition of human 5-HT2A by intracellular Ca2+ luminescence assay. It counts as functional, cell-based.
Data set [5] addresses 5-hydroxytryptamine receptor 2C (Homo sapiens, UniProt P28335). Kind of data set: Inhibition of human 5-HT2C by intracellular Ca2+ luminescence assay. It counts as functional, cell-based.
Data set [6] deals with Alpha-1B adrenergic receptor (Homo sapiens, UniProt P35368). Description: Inhibition of human adrenergic alpha 1B by intracellular Ca2+ fluorescence assay. It counts as functional, cell-based.
Alpha-1B adrenergic receptor, sequence (P35368 whole entry): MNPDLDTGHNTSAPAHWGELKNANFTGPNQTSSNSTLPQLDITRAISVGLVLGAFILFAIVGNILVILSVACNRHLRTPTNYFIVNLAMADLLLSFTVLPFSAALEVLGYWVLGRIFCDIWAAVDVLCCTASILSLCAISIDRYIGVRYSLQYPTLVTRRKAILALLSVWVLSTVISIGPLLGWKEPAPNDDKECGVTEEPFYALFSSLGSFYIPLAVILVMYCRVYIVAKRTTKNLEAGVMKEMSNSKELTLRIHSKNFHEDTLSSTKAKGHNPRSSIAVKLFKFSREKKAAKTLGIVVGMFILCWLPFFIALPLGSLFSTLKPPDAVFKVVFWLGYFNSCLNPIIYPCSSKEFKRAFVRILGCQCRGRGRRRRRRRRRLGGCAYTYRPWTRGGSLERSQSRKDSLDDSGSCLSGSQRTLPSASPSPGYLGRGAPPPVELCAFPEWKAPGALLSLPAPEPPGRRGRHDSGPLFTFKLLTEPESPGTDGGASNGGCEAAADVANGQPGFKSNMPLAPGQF
Data set [7] deals with Beta-2 adrenergic receptor (Homo sapiens, UniProt P07550). Description: Inhibition of human beta2 adrenoceptor […] incubated for 1 hr by TR-FRET assay.
Beta-2 adrenergic receptor, sequence (P07550 whole entry): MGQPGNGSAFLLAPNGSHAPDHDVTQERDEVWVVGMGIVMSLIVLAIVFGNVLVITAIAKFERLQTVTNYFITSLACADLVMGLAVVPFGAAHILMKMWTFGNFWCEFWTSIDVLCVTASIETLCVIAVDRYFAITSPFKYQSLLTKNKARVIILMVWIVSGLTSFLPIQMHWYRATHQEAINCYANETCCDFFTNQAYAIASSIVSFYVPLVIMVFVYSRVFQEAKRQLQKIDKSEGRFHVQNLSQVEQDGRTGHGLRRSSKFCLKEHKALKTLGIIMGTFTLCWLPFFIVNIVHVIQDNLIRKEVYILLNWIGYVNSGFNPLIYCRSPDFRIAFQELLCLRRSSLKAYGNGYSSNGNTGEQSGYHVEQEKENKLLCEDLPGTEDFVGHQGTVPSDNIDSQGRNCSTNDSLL
Another data set addresses D(2) dopamine receptor (Homo sapiens, UniProt P14416). Kind of data set: Inhibition of human dopamine 2 receptor in presence of GTPgS.
Another data set addresses D(1A) dopamine receptor (Homo sapiens, UniProt P21728). Description: Inhibition of His6-tagged human dopamine 1 receptor […] incubated for 1 hr by TR-FRET assay. For orientation: Time-resolved FRET reads energy transfer from a long-lived donor to a nearby acceptor.
For another data set, the target named is Histamine H1 receptor (Homo sapiens, UniProt P35367). Description: Inhibition of human HRH1 by intracellular Ca2+ luminescence assay. It counts as functional, cell-based.
The target in data set [8] is Serotonin 3 (5-HT3) receptor. Description: Inhibition of human 5-HT3 by intracellular Ca2+ fluorescence assay. It counts as cell-based.
Data set [9] deals with Muscarinic acetylcholine receptor M1 (Homo sapiens, UniProt P11229). Kind of data set: Inhibition of human M1 by intracellular Ca2+ fluorescence assay. It counts as functional, cell-based.
Data set [10] has as its target Muscarinic acetylcholine receptor M2 (Homo sapiens, UniProt P08172). Kind of data set: Inhibition of human M2 by intracellular Ca2+ fluorescence assay. It counts as functional, cell-based.
The target in another data set is Substance-P receptor (Homo sapiens, UniProt P25103). Description: Inhibition of human NK1 by intracellular Ca2+ luminescence assay. It counts as functional, cell-based.
Data set [11] addresses Kappa-type opioid receptor (Homo sapiens, UniProt P41145). Kind of data set: Inhibition of human OPRK1 in presence of GTPgS.
The next data set concerns the target Mu-type opioid receptor (Homo sapiens, UniProt P35372). Description: Inhibition of human OPRM1 in presence of GTPgS.
A further data set addresses Vasopressin V1a receptor (Homo sapiens, UniProt P37288). Description: Inhibition of human V1a by intracellular Ca2+ fluorescence assay. It counts as functional, cell-based.
Data set [12] concerns the target Acetylcholine receptor subunit alpha (Homo sapiens, UniProt P02708). Kind of data set: Inhibition of human alpha 1 nAChR by intracellular Ca2+ fluorescence assay. It counts as cell-based.
For data set [13], the target named is Voltage-dependent L-type calcium channel subunit alpha-1C (Homo sapiens, UniProt Q13936). Kind of data set: Inhibition of human CaV1.2 by intracellular Ca2+ fluorescence assay. It counts as cell-based.
Voltage-dependent L-type calcium channel subunit alpha-1C, sequence (Q13936 whole entry): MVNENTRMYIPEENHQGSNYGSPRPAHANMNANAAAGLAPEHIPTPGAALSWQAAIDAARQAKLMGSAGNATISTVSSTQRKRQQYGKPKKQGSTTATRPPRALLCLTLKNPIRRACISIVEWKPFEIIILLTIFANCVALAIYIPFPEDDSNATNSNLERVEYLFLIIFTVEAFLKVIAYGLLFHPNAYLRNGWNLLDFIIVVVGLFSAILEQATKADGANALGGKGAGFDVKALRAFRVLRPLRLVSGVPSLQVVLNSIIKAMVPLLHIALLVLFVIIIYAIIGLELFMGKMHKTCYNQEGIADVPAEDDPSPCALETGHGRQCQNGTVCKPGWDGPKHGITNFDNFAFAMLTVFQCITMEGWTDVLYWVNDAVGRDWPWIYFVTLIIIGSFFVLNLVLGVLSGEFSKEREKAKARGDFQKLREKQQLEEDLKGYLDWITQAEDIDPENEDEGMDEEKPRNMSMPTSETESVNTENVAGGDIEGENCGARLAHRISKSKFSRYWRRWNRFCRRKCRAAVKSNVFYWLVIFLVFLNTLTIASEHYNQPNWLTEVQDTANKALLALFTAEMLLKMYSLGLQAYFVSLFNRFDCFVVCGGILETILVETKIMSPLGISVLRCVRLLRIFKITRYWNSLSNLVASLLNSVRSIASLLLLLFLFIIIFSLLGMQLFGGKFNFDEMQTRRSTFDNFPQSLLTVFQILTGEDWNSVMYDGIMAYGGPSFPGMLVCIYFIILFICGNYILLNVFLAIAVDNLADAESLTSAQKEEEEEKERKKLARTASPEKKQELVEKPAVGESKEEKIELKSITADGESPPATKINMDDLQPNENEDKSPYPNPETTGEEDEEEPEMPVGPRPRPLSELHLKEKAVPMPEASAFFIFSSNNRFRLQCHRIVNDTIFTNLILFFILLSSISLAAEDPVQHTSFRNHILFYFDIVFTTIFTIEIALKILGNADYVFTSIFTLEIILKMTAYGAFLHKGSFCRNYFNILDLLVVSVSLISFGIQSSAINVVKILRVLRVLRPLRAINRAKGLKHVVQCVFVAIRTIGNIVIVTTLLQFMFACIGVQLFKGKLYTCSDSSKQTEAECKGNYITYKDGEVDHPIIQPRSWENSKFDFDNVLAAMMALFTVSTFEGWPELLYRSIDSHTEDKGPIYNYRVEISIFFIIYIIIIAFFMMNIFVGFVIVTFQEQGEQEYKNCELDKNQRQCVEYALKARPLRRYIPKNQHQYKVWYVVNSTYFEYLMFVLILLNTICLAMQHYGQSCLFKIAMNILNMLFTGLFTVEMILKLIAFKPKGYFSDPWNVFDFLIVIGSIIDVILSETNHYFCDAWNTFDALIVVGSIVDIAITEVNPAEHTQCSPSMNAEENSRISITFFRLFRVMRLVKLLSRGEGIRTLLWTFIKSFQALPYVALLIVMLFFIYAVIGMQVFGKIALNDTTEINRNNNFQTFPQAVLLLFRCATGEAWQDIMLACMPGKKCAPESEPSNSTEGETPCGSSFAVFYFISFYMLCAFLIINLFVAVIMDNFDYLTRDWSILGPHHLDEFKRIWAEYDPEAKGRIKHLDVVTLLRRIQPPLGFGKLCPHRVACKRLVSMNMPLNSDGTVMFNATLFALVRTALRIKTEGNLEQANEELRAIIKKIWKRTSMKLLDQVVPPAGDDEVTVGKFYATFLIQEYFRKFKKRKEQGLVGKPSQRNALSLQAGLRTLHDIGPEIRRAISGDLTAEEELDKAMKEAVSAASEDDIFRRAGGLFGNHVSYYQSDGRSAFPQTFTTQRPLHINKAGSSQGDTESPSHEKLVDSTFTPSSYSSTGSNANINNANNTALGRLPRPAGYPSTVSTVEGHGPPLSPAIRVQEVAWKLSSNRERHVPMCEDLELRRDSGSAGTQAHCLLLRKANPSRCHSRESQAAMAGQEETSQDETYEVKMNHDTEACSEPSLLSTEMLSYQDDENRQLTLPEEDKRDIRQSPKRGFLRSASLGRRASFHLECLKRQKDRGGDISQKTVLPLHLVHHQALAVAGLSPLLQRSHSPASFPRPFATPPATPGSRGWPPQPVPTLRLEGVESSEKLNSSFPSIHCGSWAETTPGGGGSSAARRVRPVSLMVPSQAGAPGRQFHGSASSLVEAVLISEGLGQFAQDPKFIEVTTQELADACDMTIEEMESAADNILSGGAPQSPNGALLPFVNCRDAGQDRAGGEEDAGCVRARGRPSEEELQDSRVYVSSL
Data set [14] concerns the target Voltage-gated potassium channel, IKs; KCNQ1(Kv7.1)/KCNE1(MinK) (Homo sapiens, UniProt P15382+P51787). Kind of data set: Inhibition of human KCNQ1/KCNE1 by blocker ionworks assay. It counts as protein-complex assay. Background: The patch-clamp technique gives a direct electrical read-out from membranes.
In data set [15] the target is Potassium voltage-gated channel subfamily A member 5 (Homo sapiens, UniProt P22460). Description: Inhibition of human Kv1.5 by blocker ionworks assay.
Data set [16] concerns the target Sodium channel protein type 5 subunit alpha (Homo sapiens, UniProt Q14524). Description: Inhibition of human NaV1.5 by blocker ionworks assay.
A further data set addresses Aurora kinase B (Homo sapiens, UniProt Q96GD4). Kind of data set: Inhibition of His6-tagged human Aurora B kinase at pH 7.4 incubated for 60 mins by Alexa Fluor 488 staining based fluorescence anisotropy analysis. On the technique in general: In fluorescence polarisation assays a small probe gives low polarisation when free and higher when bound to something large.
Data set [17] has as its target Glycogen synthase kinase-3 beta (Homo sapiens, UniProt P49841). Kind of data set: Inhibition of His6-tagged human GSK3beta at pH 7.4 incubated for 60 mins by Alexa Fluor 488 staining based fluorescence anisotropy analysis.
In data set [18] the target is Tyrosine-protein kinase Lck (Homo sapiens, UniProt P06239). Description: Inhibition of His6-tagged human LCK at pH 7.4 incubated for 60 mins by Alexa Fluor 488 staining based fluorescence anisotropy analysis.
Data set [19] addresses Phosphatidylinositol 4,5-bisphosphate 3-kinase catalytic subunit gamma isoform (Homo sapiens, UniProt P48736). Kind of data set: Inhibition of His6-tagged human PI3K-gamma […] incubated for 1 hr by TR-FRET assay.
Data set [20] deals with Sodium-dependent dopamine transporter (Homo sapiens, UniProt Q01959). Description: Inhibition of human DAT by scintillation proximity assay.
Sodium-dependent dopamine transporter, sequence (Q01959 whole entry): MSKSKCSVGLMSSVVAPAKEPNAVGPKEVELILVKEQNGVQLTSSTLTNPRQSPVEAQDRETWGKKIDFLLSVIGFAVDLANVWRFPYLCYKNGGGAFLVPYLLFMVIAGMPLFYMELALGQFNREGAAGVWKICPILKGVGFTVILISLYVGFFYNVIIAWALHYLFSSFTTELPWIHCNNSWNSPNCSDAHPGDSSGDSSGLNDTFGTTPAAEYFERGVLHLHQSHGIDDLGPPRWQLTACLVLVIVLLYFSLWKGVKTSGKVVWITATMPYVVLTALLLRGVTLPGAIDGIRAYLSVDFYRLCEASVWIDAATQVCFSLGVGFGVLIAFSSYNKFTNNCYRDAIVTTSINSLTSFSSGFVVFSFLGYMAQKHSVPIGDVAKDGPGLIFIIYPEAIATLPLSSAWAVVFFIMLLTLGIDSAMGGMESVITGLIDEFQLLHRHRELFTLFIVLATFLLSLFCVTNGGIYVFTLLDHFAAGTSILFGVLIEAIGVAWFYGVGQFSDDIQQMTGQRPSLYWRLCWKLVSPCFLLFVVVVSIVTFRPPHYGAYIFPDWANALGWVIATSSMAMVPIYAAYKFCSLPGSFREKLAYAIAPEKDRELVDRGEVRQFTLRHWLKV
The target in data set [21] is Solute carrier organic anion transporter family member 1B1 (Homo sapiens, UniProt Q9Y6L6). Description: Inhibition of human OATP1B1 by FLINT imaging analysis.
Data set [22] is described as follows: Cmax in NOD:SCID mouse at 30 mg/kg, ip administered for 36 hrs by LC-MS/MS analysis. It counts as ADME, organism-based. To be noted: in vivo.
Data set [23] can be described thus: AUC (0 to infinity) in NOD:SCID mouse at 30 mg/kg, ip administered for 36 hrs by LC-MS/MS analysis. It counts as ADME, organism-based. The conditions noted are these: in vivo.
The next data set concerns MV4-11. Description: Antiproliferative activity against human MV4-11 cells assessed as inhibition of cell growth incubated for 72 hrs by CellTiter-Glo assay. It counts as functional, cell-based.
In data set [24] the target is Serine/threonine-protein kinase Chk1 (Homo sapiens, UniProt O14757). Description: Inhibition of CHEK1 (unknown origin) incubated for 1 hr by colloidal coomassie staining based LC-MS/MS analysis.
Serine/threonine-protein kinase Chk1, sequence (O14757 whole entry): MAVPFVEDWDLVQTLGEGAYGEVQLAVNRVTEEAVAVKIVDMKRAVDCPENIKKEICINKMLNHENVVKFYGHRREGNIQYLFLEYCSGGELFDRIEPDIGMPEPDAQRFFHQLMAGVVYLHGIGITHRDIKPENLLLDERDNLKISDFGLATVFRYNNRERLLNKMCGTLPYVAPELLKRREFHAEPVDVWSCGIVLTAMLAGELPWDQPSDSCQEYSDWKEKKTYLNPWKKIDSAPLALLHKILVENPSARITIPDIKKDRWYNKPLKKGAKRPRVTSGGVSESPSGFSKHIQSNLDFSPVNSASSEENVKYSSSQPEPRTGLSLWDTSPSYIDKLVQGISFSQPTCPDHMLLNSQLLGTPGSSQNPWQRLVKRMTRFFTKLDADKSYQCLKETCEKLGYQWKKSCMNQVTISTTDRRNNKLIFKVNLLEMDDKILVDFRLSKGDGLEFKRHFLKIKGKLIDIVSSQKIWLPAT
Data set [25] addresses Cyclin-dependent kinase 2 (Homo sapiens, UniProt P24941). Description: Inhibition of CDK2 (unknown origin) incubated for 1 hr by colloidal coomassie staining based LC-MS/MS analysis.
In data set [26] the target is Nucleoside diphosphate kinase A/B (Homo sapiens, UniProt P15531+P22392). Kind of data set: Inhibition of NME1/NME2 (unknown origin) incubated for 1 hr by colloidal coomassie staining based LC-MS/MS analysis. It counts as protein assay.
The next data set is described as follows: in vivo. To be noted: NOD:SCID, mouse, ip, 30 mg/kg.
Data set [27] can be described thus: Cmax in NOD:SCID mouse at 30 mg/kg, ip administered for 24 hrs by LC-MS/MS analysis. It counts as ADME, organism-based. The conditions noted are these: in vivo.
Data set [28] can be described thus: AUC (0 to infinity) in NOD:SCID mouse at 30 mg/kg, ip administered for 24 hrs by LC-MS/MS analysis. It counts as ADME, organism-based. The conditions noted are these: in vivo.
Data set [29] in a line: Half life in NOD:SCID mouse at 30 mg/kg, ip administered for 24 hrs by LC-MS/MS analysis. It counts as ADME, organism-based. The conditions noted are these: in vivo.

Kappa-type opioid receptor, sequence (P41145 whole entry): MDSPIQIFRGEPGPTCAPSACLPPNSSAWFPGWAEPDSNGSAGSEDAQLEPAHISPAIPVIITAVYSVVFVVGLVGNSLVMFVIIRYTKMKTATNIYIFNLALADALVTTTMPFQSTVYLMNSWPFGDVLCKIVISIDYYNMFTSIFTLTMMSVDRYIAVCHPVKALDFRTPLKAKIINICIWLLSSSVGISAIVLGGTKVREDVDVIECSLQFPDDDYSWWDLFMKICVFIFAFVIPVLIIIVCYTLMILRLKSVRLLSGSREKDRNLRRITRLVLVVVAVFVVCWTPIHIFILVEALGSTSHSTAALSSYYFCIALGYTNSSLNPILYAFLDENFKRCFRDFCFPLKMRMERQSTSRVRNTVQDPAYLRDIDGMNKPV
Aurora kinase B, sequence (Q96GD4 whole entry): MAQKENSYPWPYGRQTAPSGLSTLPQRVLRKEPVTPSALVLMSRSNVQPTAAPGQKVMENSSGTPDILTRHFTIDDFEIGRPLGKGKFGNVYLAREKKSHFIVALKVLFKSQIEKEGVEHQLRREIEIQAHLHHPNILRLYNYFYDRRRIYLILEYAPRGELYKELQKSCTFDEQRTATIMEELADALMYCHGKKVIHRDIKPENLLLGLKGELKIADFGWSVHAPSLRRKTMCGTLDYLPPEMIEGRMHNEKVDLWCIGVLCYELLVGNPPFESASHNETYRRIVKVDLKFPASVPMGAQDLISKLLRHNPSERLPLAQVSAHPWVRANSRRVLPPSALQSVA

For orientation: pIC50 means the IC50 on a negative log10 scale, so that one unit is a factor of ten. Take `O=C(Nc1c[nH]nc1-c1nc2ccc(CN3CCOCC3)cc2[nH]1)NC1CC1` [AT-9283]: the pIC50 in the data set with NOMO-1 is under 5.00; with K562, 6.59.
In general, Cmax refers to the peak of the concentration-time curve. What is called AUC is concentration integrated over time. A higher AUC goes with more exposure. The term IC50 denotes the point on the concentration scale where inhibition reaches its midpoint. As a reminder, the half-life is how long it takes for the measured level to halve. For the molecule `CCNC(=O)C[C@@H]1N=C(c2ccc(Cl)cc2)c2cc(OC)ccc2-n2c(C)nnc21` [MOLIBRESIB], the negative-log IC50 (pIC50) in data set [1] is under 4.00; in data set [2], under 4.60; in data set [3], under 4.00; in data set [4] it was under 4.40; in data set [5], under 4.40; in [6] it was under 4.40. The pIC50 in data set [7] is under 4.50; on D(2) dopamine receptor, under 4.00; at D(1A) dopamine receptor, under 4.50; at Histamine H1 receptor, under 4.40; in data set [8] it was under 4.30; in data set [9], under 4.82. The pIC50 in data set [10] was under 4.80; on Substance-P receptor it was under 4.40; in data set [11], under 4.00; on Mu-type opioid receptor it was under 4.00; against Vasopressin V1a receptor it was under 4.30; in data set [12], 4.80. Further, the pIC50 was under 4.80 in [13]; under 4.60 in data set [14]; under 4.30 in data set [15]; under 4.00 in data set [16]; under 4.60 against Aurora kinase B; under 4.60 in data set [17]. The pIC50 in data set [18] was under 4.60; in data set [19], under 4.60; in data set [20] it was 4.10; in data set [21], 4.90; in the data set on MV4-11 (Homo sapiens, MV4-11, 72 h), 6.99; in data set [24], under 5.00. In [25], this molecule showed a pIC50 of at most 5.00. For the same molecule, the peak level in data set [22] (Cmax) was 21.9 µM. The molecule further came in with an AUC in [23] of 40.3 µM·h. In addition, the IC100 in the data set on MV4-11 (time 72 hrs) is recorded as 723 nM. Besides, in [26], the IC50 was over 10 µM. In the data set “in vivo”, this molecule had a half-life at 36 h of 1.6 h.
Turning to `Cc1sc2c(c1C)C(c1ccc(Cl)cc1)=N[C@@H](CC(=O)OC(C)(C)C)c1nnc(C)n1-2`, in data set [27], the peak level (Cmax) was 0.84 µM. In [28], this molecule yielded an AUC of 2 µM·h. In data set [29], this molecule gave a half-life of 2.3 h.

For the origin of these results see ChEMBL document CHEMBL5696440, “Inhibition of BET recruitment to chromatin as an effective treatment for MLL-fusion leukaemia” (Nature, 2011).
